In PubChem BioAssay AID2060342 (Molecular Pharmacology Branch, DTP, NCI, 2025):

System: 171881-019-R-J1-PDC multicell spheroid viability
Assay: Anticancer human tumor 171881-019-R-J1-PDC patient-derived invasive breast carcinoma cell line growth inhibition [IpAb]
Details: for IC50: curve of first compound; for viability, T/C: stronger effect = lower value; active = viability on the fitted dose curve at most 10% of control; inactive = the rest
Summary of the method: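 Spheroids of 60% malignant cells, 25% HUVEC and 15% MSC were exposed to targeted agents combined with ipatasertib or abemaciclib. Doses started at or near clinical Cmax (10 microM when unknown) and fell in half-log steps.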

[1] = second compound 0.1 µM, first compound 0.0316 µM
[2] = second compound 0.1 µM, first compound 0.1 µM
[3] = second compound 0.1 µM, first compound 0.316 µM
[4] = second compound 0.1 µM, first compound 1 µM
[5] = second compound 0.1 µM, first compound 3.16 µM
[6] = second compound 0.1 µM, first compound 10 µM
[7] = second compound 0.316 µM, first compound 0.0316 µM
[8] = second compound 0.316 µM, first compound 0.1 µM
[9] = second compound 0.316 µM, first compound 0.316 µM
[10] = second compound 0.316 µM, first compound 1 µM
[11] = second compound 0.316 µM, first compound 3.16 µM
[12] = second compound 0.316 µM, first compound 10 µM
[13] = second compound 1 µM, first compound 0.0316 µM
[14] = second compound 1 µM, first compound 0.1 µM
[15] = second compound 1 µM, first compound 0.316 µM
[16] = second compound 1 µM, first compound 1 µM
[17] = second compound 1 µM, first compound 3.16 µM
[18] = second compound 1 µM, first compound 10 µM
[19] = second compound 3.16 µM, first compound 0.0316 µM
[20] = second compound 3.16 µM, first compound 0.1 µM
[21] = second compound 10 µM, first compound 0.0316 µM
[22] = second compound 10 µM, first compound 0.1 µM
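Note: spheroids exposed to the agents for seven days before readout.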

Cn1ncc(Cl)c1-c1cc(C(=O)NC(CN)Cc2cccc(F)c2)sc1Cl (stereo not given) + CC(C)NCC(C(=O)N1CCN(c2ncnc3c2C(C)CC3O)CC1)c1ccc(Cl)cc1
active: viability, T/C [4] 13.1% | viability, T/C [5] 4.31% | viability, T/C [6] 0.42% | viability, T/C [10] 10.6% | viability, T/C [11] 3.79% | viability, T/C [12] 0.18% | viability, T/C [16] 9.71% | viability, T/C [17] 3.91% | viability, T/C [18] 0.14% | viability, T/C (second compound 3.16 µM, first compound 0.316 µM) 9.15% | viability, T/C (second compound 3.16 µM, first compound 1 µM) 7.27% | viability, T/C (second compound 3.16 µM, first compound 3.16 µM) 3.38% | viability, T/C (second compound 3.16 µM, first compound 10 µM) 0.25% | viability, T/C [21] 5.35% | viability, T/C [22] 5.51% | viability, T/C (second compound 10 µM, first compound 0.316 µM) 5.12% | viability, T/C (second compound 10 µM, first compound 1 µM) 4.62% | viability, T/C (second compound 10 µM, first compound 3.16 µM) 2.7% | viability, T/C (second compound 10 µM, first compound 10 µM) 0.21%
66.3 nM: IC50 (second compound 0.316 µM)
161 nM: IC50 (second compound 0.1 µM)
< 31.6 nM: IC50 (second compound 1 µM) | IC50 (second compound 3.16 µM) | IC50 (second compound 10 µM)
inactive: viability, T/C [1] 86.5% | viability, T/C [2] 67.3% | viability, T/C [3] 25% | viability, T/C [7] 59.8% | viability, T/C [8] 45.3% | viability, T/C [9] 22.6% | viability, T/C [13] 23.8% | viability, T/C [14] 20.8% | viability, T/C [15] 13.8% | viability, T/C [19] 10.8% | viability, T/C [20] 10.5%

Cn1ncnc1[C@H]1c2n[nH]c(=O)c3cc(F)cc(c23)N[C@@H]1c1ccc(F)cc1 + CC(C)NCC(C(=O)N1CCN(c2ncnc3c2C(C)CC3O)CC1)c1ccc(Cl)cc1
< 0.316 nM: IC50 (second compound 1 µM) | IC50 (second compound 3.16 µM) | IC50 (second compound 10 µM)
> 100 nM: IC50 (second compound 0.1 µM) | IC50 (second compound 0.316 µM)
inactive: viability, T/C (second compound 0.1 µM, first compound 0.000316 µM) 102% | viability, T/C (second compound 0.1 µM, first compound 0.001 µM) 114% | viability, T/C (second compound 0.1 µM, first compound 0.00316 µM) 121% | viability, T/C (second compound 0.1 µM, first compound 0.01 µM) 108% | viability, T/C [1] 108% | viability, T/C [2] 101% | viability, T/C (second compound 0.316 µM, first compound 0.000316 µM) 74.8% | viability, T/C (second compound 0.316 µM, first compound 0.001 µM) 75.1% | viability, T/C (second compound 0.316 µM, first compound 0.00316 µM) 75.6% | viability, T/C (second compound 0.316 µM, first compound 0.01 µM) 72.6% | viability, T/C [7] 65.8% | viability, T/C [8] 60.8% | viability, T/C (second compound 1 µM, first compound 0.000316 µM) 27.4% | viability, T/C (second compound 1 µM, first compound 0.001 µM) 24.4% | viability, T/C (second compound 1 µM, first compound 0.00316 µM) 20.7% | viability, T/C (second compound 1 µM, first compound 0.01 µM) 24.6% | viability, T/C [13] 20.3% | viability, T/C [14] 17.1% | viability, T/C (second compound 3.16 µM, first compound 0.000316 µM) 10.7%
active: viability, T/C (second compound 3.16 µM, first compound 0.001 µM) 12.5% | viability, T/C (second compound 3.16 µM, first compound 0.00316 µM) 8.98% | viability, T/C (second compound 3.16 µM, first compound 0.01 µM) 10% | viability, T/C [19] 8.89% | viability, T/C [20] 7.64% | viability, T/C (second compound 10 µM, first compound 0.000316 µM) 5.76% | viability, T/C (second compound 10 µM, first compound 0.001 µM) 5.36% | viability, T/C (second compound 10 µM, first compound 0.00316 µM) 5.17% | viability, T/C (second compound 10 µM, first compound 0.01 µM) 5.3% | viability, T/C [21] 4.77% | viability, T/C [22] 4.29%

C=CCn1c(=O)c2cnc(Nc3ccc(N4CCN(C)CC4)cc3)nc2n1-c1cccc(C(C)(C)O)n1 + CCN1CCN(Cc2ccc(Nc3ncc(F)c(-c4cc(F)c5nc(C)n(C(C)C)c5c4)n3)nc2)CC1
1000 nM: IC50 (second compound 0.0316 µM)
864 nM: IC50 (second compound 0.01 µM)
inactive: viability, T/C (second compound 0.01 µM, first compound 0.0316 µM) 88.8% | viability, T/C (second compound 0.01 µM, first compound 0.1 µM) 93.3% | viability, T/C (second compound 0.01 µM, first compound 0.316 µM) 109% | viability, T/C (second compound 0.01 µM, first compound 1 µM) 43.2% | viability, T/C (second compound 0.01 µM, first compound 3.16 µM) 30.3% | viability, T/C (second compound 0.01 µM, first compound 10 µM) 30.3% | viability, T/C (second compound 0.0316 µM, first compound 0.0316 µM) 116% | viability, T/C (second compound 0.0316 µM, first compound 0.1 µM) 97.3% | viability, T/C (second compound 0.0316 µM, first compound 0.316 µM) 119% | viability, T/C (second compound 0.0316 µM, first compound 1 µM) 50% | viability, T/C (second compound 0.0316 µM, first compound 3.16 µM) 35% | viability, T/C (second compound 0.0316 µM, first compound 10 µM) 32% | viability, T/C [1] 110% | viability, T/C [2] 105% | viability, T/C [3] 126% | viability, T/C [4] 57.9% | viability, T/C [5] 42.7% | viability, T/C [6] 37.2% | viability, T/C [7] 131% | viability, T/C [8] 137% | viability, T/C [9] 134% | viability, T/C [10] 83.1% | viability, T/C [11] 57.1% | viability, T/C [12] 47.7% | viability, T/C [13] 150% | viability, T/C [14] 150% | viability, T/C [15] 149% | viability, T/C [16] 98.8% | viability, T/C [17] 78.7% | viability, T/C [18] 69.8%
> 10000 nM: IC50 (second compound 0.316 µM) | IC50 (second compound 1 µM)
1660 nM: IC50 (second compound 0.1 µM)

Cn1cnc2c(F)c(Nc3ccc(Br)cc3Cl)c(C(=O)NOCCO)cc21 + CCN1CCN(Cc2ccc(Nc3ncc(F)c(-c4cc(F)c5nc(C)n(C(C)C)c5c4)n3)nc2)CC1
1150 nM: IC50 (second compound 0.1 µM)
1130 nM: IC50 (second compound 0.0316 µM)
inactive: viability, T/C (second compound 0.01 µM, first compound 0.00949 µM) 97.1% | viability, T/C (second compound 0.01 µM, first compound 0.03 µM) 114% | viability, T/C (second compound 0.01 µM, first compound 0.0949 µM) 112% | viability, T/C (second compound 0.01 µM, first compound 0.3 µM) 114% | viability, T/C (second compound 0.01 µM, first compound 0.949 µM) 61.3% | viability, T/C (second compound 0.01 µM, first compound 3 µM) 13.9% | viability, T/C (second compound 0.0316 µM, first compound 0.00949 µM) 121% | viability, T/C (second compound 0.0316 µM, first compound 0.03 µM) 120% | viability, T/C (second compound 0.0316 µM, first compound 0.0949 µM) 130% | viability, T/C (second compound 0.0316 µM, first compound 0.3 µM) 109% | viability, T/C (second compound 0.0316 µM, first compound 0.949 µM) 56.8% | viability, T/C (second compound 0.0316 µM, first compound 3 µM) 14.6% | viability, T/C (second compound 0.1 µM, first compound 0.00949 µM) 112% | viability, T/C (second compound 0.1 µM, first compound 0.03 µM) 138% | viability, T/C (second compound 0.1 µM, first compound 0.0949 µM) 126% | viability, T/C (second compound 0.1 µM, first compound 0.3 µM) 99.7% | viability, T/C (second compound 0.1 µM, first compound 0.949 µM) 58.3% | viability, T/C (second compound 0.1 µM, first compound 3 µM) 15.9% | viability, T/C (second compound 0.316 µM, first compound 0.00949 µM) 142% | viability, T/C (second compound 0.316 µM, first compound 0.03 µM) 142% | viability, T/C (second compound 0.316 µM, first compound 0.0949 µM) 136% | viability, T/C (second compound 0.316 µM, first compound 0.3 µM) 116% | viability, T/C (second compound 0.316 µM, first compound 0.949 µM) 63.4% | viability, T/C (second compound 0.316 µM, first compound 3 µM) 23.4% | viability, T/C (second compound 1 µM, first compound 0.00949 µM) 149% | viability, T/C (second compound 1 µM, first compound 0.03 µM) 142% | viability, T/C (second compound 1 µM, first compound 0.0949 µM) 138% | viability, T/C (second compound 1 µM, first compound 0.3 µM) 106% | viability, T/C (second compound 1 µM, first compound 0.949 µM) 59.5% | viability, T/C (second compound 1 µM, first compound 3 µM) 25.8%
1400 nM: IC50 (second compound 0.316 µM)
1250 nM: IC50 (second compound 0.01 µM)
1320 nM: IC50 (second compound 1 µM)
